# Measurements reported in ChEMBL document CHEMBL1201862, “PubChem BioAssay data set” (2004).
#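 Exposure lasted 48 hours, with cells grown in 96-well plates and compounds tested at five concentrations. GI50 = concentration required for 50% inhibition of growth.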 The source made the active and inactive calls. Rule as the data show it: active = GI50 up to about 1.1 µM and inactive = higher.
# How the values were obtained:
# Assay in all cases: NCI tumour cell line growth inhibition, 48 h
# [1] = system: XF498
# [2] = system: A549
# [3] = system: IGROV-1
# [4] = system: SW-620
# [5] = system: LOX IMVI
# [6] = system: NCI-H522
# [7] = system: SK-MEL-28
# [8] = system: Malme-3M
# [9] = system: ACHN
# [10] = system: KM12
# [11] = system: UACC-62
# [12] = system: U-251
# [13] = system: SK-OV-3
# [14] = system: UACC-257
# [15] = system: NCI-H460
# [16] = system: MOLT-4
# [17] = system: HOP-92
# [18] = system: OVCAR-4
# [19] = system: DMS-273
# [20] = system: M14
# [21] = system: HOP-62
# [22] = system: SNB-78
# [23] = system: NCI-H226
# [24] = system: SR
# [25] = system: CAKI-1
# [26] = system: CCRF-CEM
# [27] = system: UO-31
# [28] = system: COLO 205
# [29] = system: NCI-H23
# [30] = system: HL-60
# [31] = system: HCT-15
# [32] = system: SK-MEL-2
# [33] = system: RXF 393
# [34] = system: HCT-116
# [35] = system: 786-0
# [36] = system: A498
# [37] = system: SNB-75
# [38] = system: RXF 631
# [39] = system: TK-10
# [40] = system: HCC 2998
# [41] = system: HT-29
# [42] = system: K562
# [43] = system: SNB-19
# [44] = system: SN12C
# [45] = system: OVCAR-8
# [46] = system: OVCAR-3
# [47] = system: SF-268
# [48] = system: KM-20L2
# [49] = system: SF-539
# [50] = system: RPMI-8226
# [51] = system: SK-MEL-5
# [52] = system: DLD-1
# [53] = system: LXFL 529
# [54] = system: SF-295
# [55] = system: OVCAR-5
# [56] = system: M19-MEL
# [57] = system: HOP-18
smiles,measurement,setting,value
CCOc1ccccc1NC(=O)CCC(=O)NN,GI50,[1],> 100 µM (inactive)
same,GI50,[2],> 100 µM (inactive)
same,GI50,[3],> 100 µM (inactive)
same,GI50,[4],> 100 µM (inactive)
same,GI50,[5],> 100 µM (inactive)
same,GI50,[6],> 100 µM (inactive)
same,GI50,[7],> 100 µM (inactive)
same,GI50,[8],> 100 µM (inactive)
same,GI50,[9],> 100 µM (inactive)
same,GI50,[10],> 100 µM (inactive)
same,GI50,[11],> 100 µM (inactive)
same,GI50,[12],> 100 µM (inactive)
same,GI50,[13],> 100 µM (inactive)
same,GI50,[14],> 100 µM (inactive)
same,GI50,[15],> 100 µM (inactive)
same,GI50,[16],> 100 µM (inactive)
same,GI50,[17],> 100 µM (inactive)
same,GI50,[18],> 100 µM (inactive)
same,GI50,[19],> 100 µM (inactive)
same,GI50,[20],> 100 µM (inactive)
same,GI50,[21],> 100 µM (inactive)
same,GI50,[22],> 100 µM (inactive)
same,GI50,[23],> 100 µM (inactive)
same,GI50,[24],2.75 µM (inactive)
same,GI50,[25],> 100 µM (inactive)
same,GI50,[26],> 100 µM (inactive)
same,GI50,[27],> 100 µM (inactive)
same,GI50,[28],> 100 µM (inactive)
same,GI50,[29],> 100 µM (inactive)
same,GI50,[30],> 100 µM (inactive)
same,GI50,[31],> 100 µM
same,GI50,[32],> 100 µM (inactive)
same,GI50,[33],> 100 µM (inactive)
same,GI50,[34],> 100 µM (inactive)
same,GI50,[35],> 100 µM (inactive)
same,GI50,[36],> 100 µM (inactive)
same,GI50,[37],> 100 µM (inactive)
same,GI50,[38],> 100 µM (inactive)
same,GI50,[39],> 100 µM (inactive)
same,GI50,[40],> 100 µM (inactive)
same,GI50,[41],> 100 µM (inactive)
same,GI50,[42],> 100 µM (inactive)
same,GI50,[43],> 100 µM (inactive)
same,GI50,[44],> 100 µM (inactive)
same,GI50,[45],> 100 µM (inactive)
same,GI50,[46],> 100 µM (inactive)
same,GI50,[47],> 100 µM (inactive)
same,GI50,[48],> 100 µM (inactive)
same,GI50,[49],> 100 µM (inactive)
same,GI50,[50],65.6 µM (inactive)
same,GI50,[51],> 100 µM (inactive)
same,GI50,[52],> 100 µM (inactive)
same,GI50,[53],> 100 µM (inactive)
same,GI50,[54],> 100 µM (inactive)
same,GI50,[55],> 100 µM (inactive)
Cc1cn(C2CC(O)C(COC(=O)c3ccccc3)O2)c(=O)[nH]c1=O (configuration not stated),GI50,[1],> 100 µM (inactive)
same,GI50,[2],> 100 µM (inactive)
same,GI50,[3],> 100 µM (inactive)
same,GI50,[4],> 100 µM (inactive)
same,GI50,[5],> 100 µM (inactive)
same,GI50,[6],> 100 µM (inactive)
same,GI50,[7],> 100 µM (inactive)
same,GI50,[8],> 100 µM (inactive)
same,GI50,[9],> 100 µM (inactive)
same,GI50,[10],> 100 µM (inactive)
same,GI50,[11],> 100 µM (inactive)
same,GI50,[12],> 100 µM (inactive)
same,GI50,[14],> 100 µM (inactive)
same,GI50,[15],> 100 µM (inactive)
same,GI50,[16],> 100 µM (inactive)
same,GI50,[17],> 100 µM (inactive)
same,GI50,[18],> 100 µM (inactive)
same,GI50,[19],> 100 µM (inactive)
same,GI50,[20],> 100 µM (inactive)
same,GI50,[21],> 100 µM (inactive)
same,GI50,[22],> 100 µM (inactive)
same,GI50,[24],> 100 µM (inactive)
same,GI50,[25],> 100 µM (inactive)
same,GI50,[26],> 100 µM (inactive)
same,GI50,[28],> 100 µM (inactive)
same,GI50,[29],> 100 µM (inactive)
same,GI50,[30],> 100 µM (inactive)
same,GI50,[31],> 100 µM
same,GI50,[33],> 100 µM (inactive)
same,GI50,[34],> 100 µM (inactive)
same,GI50,[35],> 100 µM (inactive)
same,GI50,[36],> 100 µM (inactive)
same,GI50,[56],> 100 µM (inactive)
same,GI50,[38],> 100 µM (inactive)
same,GI50,[39],> 100 µM (inactive)
same,GI50,[40],> 100 µM (inactive)
same,GI50,[41],> 100 µM (inactive)
same,GI50,[42],> 100 µM (inactive)
same,GI50,[57],> 100 µM (inactive)
same,GI50,[43],> 100 µM (inactive)
same,GI50,[44],> 100 µM (inactive)
same,GI50,[45],> 100 µM (inactive)
same,GI50,[46],> 100 µM (inactive)
same,GI50,[47],> 10 µM (inactive)
same,GI50,[48],> 100 µM (inactive)
same,GI50,[49],> 100 µM (inactive)
same,GI50,[50],> 100 µM (inactive)
same,GI50,[51],> 100 µM (inactive)
same,GI50,[52],> 100 µM (inactive)
same,GI50,[53],> 100 µM (inactive)
same,GI50,[54],> 100 µM (inactive)
same,GI50,[55],> 100 µM (inactive)
